From article PMC11280390, “Synthesis of Nitrostyrylthiazolidine-2,4-dione Derivatives Displaying Antileishmanial Potential” (Pharmaceuticals, 2024)
Where two headings read alike, the source gives them in different places.

Experiments:
[1] = system: wild-type L. donovani (LdBOB) promastigotes; test: Antileishmanial activity against wild-type L. donovani promastigotes; type: cell-based; details: Leishmania donovani, read-out: EC50 Values, WT
Method: (§1) EC50 values were determined as previously described. Nifurtimox was used as a positive control for activation via NTR1 [38] while delamanid was used as a positive control for activation via NTR2 [39].

[2] = system: L. donovani promastigotes overexpressing NTR2; test: microbe, parasite or virus in culture; type: cell-based; details: Leishmania donovani, read-out: EC50 Values, NTR2 OE
Method: as §1

[3] = system: L. donovani promastigotes overexpressing NTR1; test: microbe, parasite or virus in culture; type: cell-based; details: Leishmania donovani, read-out: EC50 Values, NTR1 OE
Method: as §1

HepG2 cell line = test: In vitro cytotoxicity on the human hepatic HepG2 cell line (MTT, 72 h); details: for CC50: read-out: HepG2 Cytotoxicity CC50, HepG2, 72 h, MTT; for Selectivity INDEX (SI = CC50/EC50): HepG2 CC50 / L. infantum promastigote EC50
Method: (§2) HepG2 cell line (hepatocarcinoma cell line purchased from ATCC, ref HB-8065) was maintained at 37 °C, 5% CO2 with 90% humidity in MEM supplemented with 10% fetal bovine serum, 1% L-glutamine (200 mM) and penicillin (100 U/mL)/streptomycin ([…]) (complete MEM medium). The tested molecules’ cytotoxicity was assessed according to the method of Mosmann with slight modifications. Briefly, 5 × 10^3 cells in 100 μL of complete medium were inoculated into each well of 96-well plates and incubated at 37 °C in a humidified 5% CO2. After 24 h incubation, 100 μL of medium with various product concentrations dissolved in DMSO (final concentration less than 0.5% v/v) were added and the plates were incubated for 72 h at 37 °C. Triplicate assays were performed for each sample. Each plate well was then microscope-examined to detect possible precipitate formation before the medium was aspirated from the wells. Then, 100 μL of MTT (3-(4,5-dimethyl-2-thiazolyl)-2,5-diphenyl-2H-tetrazolium bromide) solution (0.5 mg/mL in medium without FCS) were then added to each well. Cells were incubated for 2 h at 37 °C, following which the MTT solution was removed and DMSO (100 μL) was added to dissolve the resulting blue formazan crystals. Plates were shaken vigorously (700 rpm) for 10 min. The absorbance was measured at 570 nm with 630 nm as reference wavelength using a TECAN Infinite F-200 spectrophotometer (Tecan Trading AG, Männedorf, Switzerland). DMSO was used as blank and doxorubicin (purchased from Sigma Aldrich, Saint Louis, MI, USA) as positive control. Cell viability was calculated as a percentage of control (cells incubated without compound). […] CC50 values represent the mean value calculated from three separate experiments.

[4] = In vitro cytotoxicity on the human monocyte THP-1 cell line (MTT, 72 h); type: cell-based; details: human; THP-1, 72 h, MTT
Method: The undifferentiated THP1 human monocyte cells (acute monocytic leukemia cell line purchased from ATCC, ref TIB-202) were routinely grown in RPMI 1640 medium (Life Technologies, Saint-Aubin, France) supplemented with 10% FCS (Life Technologies, Saint-Aubin, France), 100 U/mL penicillin, 100 µg/mL streptomycin and 2 mM L-glutamine at 37 °C, 5% CO2. The culture was maintained between 3.10^5 and 8.10^5 cells/mL. […] Wells were washed with RPMI and 100 µL of fresh complete medium was added. […] Then, 100 µL of MTT solution (0.5 mg/mL in medium) was added to each well. Cells were incubated for 2 h at 37 °C. […] Plates were shaken vigorously (700 rpm) for 10 min. […] (Palo Alto, CA, USA).

[5] = In vitro cytotoxicity on the human hepatic HepG2 cell line (MTT, 72 h); details: human
Method: as §2

[6] = system: Leishmania infantum promastigotes; test: In vitro antileishmanial activity on L. infantum promastigotes (MTT, 72 h); type: cell-based; details: Leishmania infantum, read-out: Anti-L. infantum Promastigote Activity EC50
Method: Luciferase-expressing Leishmania infantum was kindly provided by Professor Thierry Lang of the Institut Pasteur. L. infantum promastigotes were routinely grown at 27 °C in Schneider’s Drosophila Medium (Dominique […] SAS, Bernolsheim, France) supplemented with 10% fetal calf serum, 2% human urine, sodium pyruvate 0.04 mM, hemin 0.1 µg/mL, HEPES 5 mM, streptomycin 100 µg/mL, penicillin 100 U/mL, L-glutamine 2 mM (culture medium). The in vitro evaluation of the antileishmanial activity of the tested compound on L. infantum promastigotes forms was assessed according to the Mosmann protocol with slight modifications. […] Appropriate controls treated with DMSO, Miltefosine, Amphotericin B and Fexinidazole sulfone (reference drugs purchased from Sigma-Aldrich, Saint-Louis, MO, USA) were added to each set of experiments. The plates were incubated at 27 °C for 72 h, Then, each plate-well was microscope-analyzed to detect any precipitate formation. Afterward, 20 µL of MTT (3-(4,5-dimethylthiazol-2-yl)-2,5-diphenyltetrazolium bromide) (Sigma-Aldrich, Saint-Louis, MI, USA) solution (5 mg/mL in PBS) were added to each well and incubated at 27 °C for 4 h. The reaction was then stopped by the addition of 100 µL of 10% sodium dodecyl sulfate—50% isopropanol. Plates were shaken vigorously at 400 rpm for 10 min. […] EC50 values represent the mean value calculated from at least three separate experiments.

[7] = HepG2 cells (hepatocarcinoma cell line, ATCC HB-8065), HepG2 Cytotoxicity CC50, HepG2, 72 h, MTT

## C[C@]1(COc2ccc(N3CCC(Oc4ccc(OC(F)(F)F)cc4)CC3)cc2)Cn2cc([N+](=O)[O-])nc2O1 [Delamanid]
[1]
  EC50: 0.003 ± 0.0001 µM
[2]
  EC50: 0.0003 ± 1e-06 µM
[3]
  EC50: 0.002 ± 0.0003 µM

## COc1cccc2c1C(=O)c1c(O)c3c(c(O)c1C2=O)C[C@@](O)(C(=O)CO)C[C@@H]3O[C@H]1C[C@H](N)[C@H](O)[C@H](C)O1 [Doxorubicin, reference compound]
HepG2 cell line
  CC50: 0.2 ± 0.02 µM
[4]
  CC50 at 72 h: 2.2 ± 0.1 µM

## CC1CS(=O)(=O)CCN1/N=C/c1ccc([N+](=O)[O-])o1 (stereo not shown) [Nifurtimox]
[1]
  EC50: 3.11 ± 0.223 µM
[2]
  EC50: 0.163 ± 0.011 µM
[3]
  EC50: 0.144 ± 0.01 µM

## O=C(CN1C(=O)S/C(=C\c2ccc([N+](=O)[O-])cc2)C1=O)Nc1ccc([N+](=O)[O-])cc1 [Compound 26d, (Z)-2-(5-(4-Nitrobenzylidene)thiazolidine-2,4-dion-3-yl)-N-(4-nitroyphenyl) acetamide]
[5]
  CC50 at 72 h: > 25 µM
HepG2 cell line
  Selectivity INDEX (SI = CC50/EC50): >1.8
[6]
  EC50: 14.1 ± 2.8 µM
other
  melting point: 284 to 285 °C

## Cc1ccc(NC(=O)CN2C(=O)S/C(=C\c3ccccc3[N+](=O)[O-])C2=O)cc1 [Compound 24b, (Z)-N-(4-Methylphenyl)-2-(5-(2-nitrobenzylidene)thiazolidine-2,4-dion-3-yl) acetamide]
[5]; [7]
  CC50 at 72 h: 30.9 ± 3.97 µM
HepG2 cell line
  Selectivity INDEX (SI = CC50/EC50): 1.2
[6]; L. infantum promastigotes, MTT
  EC50: 24.8 ± 6.68 µM
other
  melting point: 181 to 183 °C

## O=C(CN1C(=O)S/C(=C\c2ccccc2[N+](=O)[O-])C1=O)Nc1ccccc1Cl [Compound 28b, (Z)-N-(2-Chlorophenyl)-2-(5-(2-nitrobenzylidene)thiazolidine-2,4-dion-3-yl) acetamide]
[5]; [7]
  CC50 at 72 h: 23 ± 3.2 µM
HepG2 cell line
  Selectivity INDEX (SI = CC50/EC50): 1.4
[6]; L. infantum promastigotes, MTT
  EC50: 16.1 ± 4.32 µM
other
  melting point: 174 to 175 °C

## O=C(CN1C(=O)S/C(=C\c2ccccc2[N+](=O)[O-])C1=O)Nc1ccccc1 [Compound 23b, (Z)-2-(5-(2-Nitrobenzylidene)thiazolidine-2,4-dion-3-yl)-N-phenylacetamide]
[5]; [7]
  CC50 at 72 h: 22.3 ± 0.59 µM
HepG2 cell line
  Selectivity INDEX (SI = CC50/EC50): 1.9
[6]; L. infantum promastigotes, MTT
  EC50: 11.6 ± 3.43 µM
other
  melting point: 186 to 188 °C

## C[C@@H]1[C@H](O)[C@@H](C)/C=C/C=C/C=C/C=C/C=C/C=C/C=C/[C@H](O[C@@H]2O[C@H](C)[C@@H](O)[C@H](N)[C@@H]2O)C[C@@H]2O[C@](O)(C[C@@H](O)C[C@@H](O)[C@H](O)CC[C@@H](O)C[C@@H](O)CC(=O)O[C@H]1C)C[C@H](O)[C@H]2C(=O)O [Amphotericin B, reference compound]
[6]; L. infantum promastigotes, MTT
  EC50: 0.06 ± 0.02 µM
[4]
  CC50 at 72 h: 17.6 ± 3 µM

## O=C(CN1C(=O)S/C(=C\c2ccccc2[N+](=O)[O-])C1=O)c1ccccc1 [Compound 16b, (Z)-5-(2-Nitrobenzylidene)-3-(2-oxo-2-phenylethyl)thiazolidine-2,4-dione]
[5]; [7]
  CC50 at 72 h: 11 ± 2.28 µM
HepG2 cell line
  Selectivity INDEX (SI = CC50/EC50): 2.0
[6]; L. infantum promastigotes, MTT
  EC50: 5.57 ± 1.28 µM
other
  melting point: 156 to 158 °C

## CCOC(=O)CN1C(=O)S/C(=C\c2ccccc2[N+](=O)[O-])C1=O [Compound 12b, Ethyl ((Z)-5-(2-nitrobenzylidene)thiazolidine-2,4-dion-3-yl)acetate]
[5]; [7]
  CC50 at 72 h: 39.4 ± 7.09 µM
HepG2 cell line
  Selectivity INDEX (SI = CC50/EC50): 1.6
[6]; L. infantum promastigotes, MTT
  EC50: 24.1 ± 5.14 µM
other
  melting point: 81 to 83 °C

## Cn1c([N+](=O)[O-])cnc1COc1ccc(S(C)(=O)=O)cc1 [Fexinidazole sulfone, reference compound]
[5]; [7]
  CC50 at 72 h: > 200 µM
HepG2 cell line
  Selectivity INDEX (SI = CC50/EC50): >64.5
[6]; L. infantum promastigotes, MTT
  EC50: 3.1 ± 0.7 µM
[4]
  CC50 at 72 h: > 200 µM

## NC(=O)CN1C(=O)S/C(=C\c2cccc([N+](=O)[O-])c2)C1=O [Compound 15c, (Z)-2-(5-(3-Nitrobenzylidene)thiazolidine-2,4-dion-3-yl)acetamide]
[5]; [7]
  CC50 at 72 h: > 62.5 µM
HepG2 cell line
  Selectivity INDEX (SI = CC50/EC50): >4.7
[6]; L. infantum promastigotes, MTT
  EC50: 13.3 ± 7.75 µM
other
  melting point: 256 to 258 °C

## CCOC(=O)CN1C(=O)S/C(=C\c2ccc([N+](=O)[O-])cc2)C1=O [Compound 12d, Ethyl ((Z)-5-(4-nitrobenzylidene)thiazolidine-2,4-dion-3-yl)acetate]
[5]; [7]
  CC50 at 72 h: 101 to 125 µM
HepG2 cell line
  Selectivity INDEX (SI = CC50/EC50): >10.8
  CC50: > 125 µM
[6]; L. infantum promastigotes, MTT
  EC50: 11.6 ± 2.37 µM
other
  melting point: 136 to 138 °C

## O=C(CN1C(=O)S/C(=C\c2cccc([N+](=O)[O-])c2)C1=O)Nc1ccc([N+](=O)[O-])cc1 [Compound 26c, (Z)-2-(5-(3-Nitrobenzylidene)thiazolidine-2,4-dion-3-yl)-N-(4-nitroyphenyl) acetamide]
[5]
  CC50 at 72 h: > 25 µM
HepG2 cell line
  Selectivity INDEX (SI = CC50/EC50): >3.5
[6]
  EC50: 7.2 ± 1.48 µM
other
  melting point: 264 to 266 °C

## O=C(CN1C(=O)S/C(=C\c2ccccc2[N+](=O)[O-])C1=O)Nc1ccc(Cl)cc1 [Compound 27b, (Z)-N-(4-Chlorophenyl)-2-(5-(2-nitrobenzylidene)thiazolidine-2,4-dion-3-yl) acetamide]
[5]; [7]
  CC50 at 72 h: 34.6 ± 3.03 µM
HepG2 cell line
  Selectivity INDEX (SI = CC50/EC50): 2.1
[6]; L. infantum promastigotes, MTT
  EC50: 16.3 ± 3.85 µM
other
  melting point: 188 to 190 °C

## O=C(CN1C(=O)S/C(=C\c2ccccc2[N+](=O)[O-])C1=O)Nc1ccc([N+](=O)[O-])cc1 [Compound 26b, (Z)-2-(5-(2-Nitrobenzylidene)thiazolidine-2,4-dion-3-yl)-N-(4-nitroyphenyl) acetamide]
[5]
  CC50 at 72 h: 30.1 ± 3.94 µM
HepG2 cell line
  Selectivity INDEX (SI = CC50/EC50): 2.1
[6]
  EC50: 14.6 ± 2.91 µM
other
  melting point: 213 to 215 °C

## O=C(CN1C(=O)S/C(=C\c2ccc([N+](=O)[O-])cc2)C1=O)Nc1ccc(Cl)cc1 [Compound 27d, (Z)-N-(4-Chlorophenyl)-2-(5-(4-nitrobenzylidene)thiazolidine-2,4-dion-3-yl) acetamide]
[5]; [7]
  CC50 at 72 h: > 12.5 µM
HepG2 cell line
  Selectivity INDEX (SI = CC50/EC50): >0.7
[6]; L. infantum promastigotes, MTT
  EC50: 17.3 ± 4.17 µM
other
  melting point: 252 to 254 °C

## O=C(CN1C(=O)S/C(=C\c2cccc([N+](=O)[O-])c2)C1=O)c1ccccc1 [Compound 16c, (Z)-5-(3-Nitrobenzylidene)-3-(2-oxo-2-phenylethyl)thiazolidine-2,4-dione]
[5]; [7]
  CC50 at 72 h: > 12.5 µM
HepG2 cell line
  Selectivity INDEX (SI = CC50/EC50): >3.9
[6]; L. infantum promastigotes, MTT
  EC50: 3.22 ± 0.94 µM
other
  melting point: 160 to 162 °C

## N#CCN1C(=O)S/C(=C\c2ccc([N+](=O)[O-])cc2)C1=O [Compound 14d, (Z)-2-(5-(4-Nitrobenzylidene)thiazolidine-2,4-dion-3-yl)acetonitrile]
[5]; [7]
  CC50 at 72 h: 109 ± 11 µM
HepG2 cell line
  Selectivity INDEX (SI = CC50/EC50): 4.4
[6]; L. infantum promastigotes, MTT
  EC50: 24.8 ± 6.09 µM
other
  melting point: 193 to 195 °C

## CCCCCCCCCCCCCCCCOP(=O)([O-])OCC[N+](C)(C)C [Miltefosine, reference compound]
[6]; L. infantum promastigotes, MTT
  EC50: 3.3 ± 0.8 µM
[4]
  CC50 at 72 h: 30 ± 4 µM
